Columns and labels:
Assay type in all cases: in vivo
directly sown rice [1] = test: Test Example 4: foliar treatment, effect on crop; b: directly sown rice; conditions: treatment dosage 315 g/ha
In short: (§1)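 Seeds are spot-sown into sterilized diluvial soil and covered with about 1.5 cm of soil. After 14 days' greenhouse growth at 25 to 30° C, plants are sprayed on stems and leaves with diluted emulsion at the stated g/ha rate, then scored at 3 weeks.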

crabgrass [2] = test: Test Example 4: weedkilling efficacy by foliar treatment; D: crabgrass; conditions: treatment dosage 315 g/ha
In short: as §1

crabgrass [3] = test: Test Example 3: weedkilling efficacy through soil treatment; D: crabgrass; conditions: treatment dosage 315 g/ha
In short: (§2)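 Crop and weed responses were judged three weeks after a uniform surface spray of the water-diluted emulsion at the given g/ha rate. Seeds sat beneath about 1.5 cm of sterilized diluvial soil, and boxes stood in a greenhouse at 25 to 30° C.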

oval-leafed pondweed [4] = test: Test Example 2: weedkilling efficacy, growth period weed treatment in the submerged state; C: oval-leafed pondweed; conditions: treatment dosage 252 g/ha
In short: (§3)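 Barnyard grass, bulrush and oval-leafed pondweed sown in alluvial soil under 4 cm flooding, greenhouse 25 to 30° C. At 1-2 leaf stage, water-diluted emulsion applied to the water surface at stated g/ha dosages; effects scored 3 weeks later.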

transplanted rice = test: Test Example 1: preemergent weed treatment in the submerged state, effect on crop; a: transplanted rice; conditions: treatment dosage 252 g/ha
In short: (§4)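 Pots of alluvial soil flooded 4 cm deep, sown with barnyard grass, bulrush and oval-leafed pondweed and transplanted with 2.5-leaf rice. Emulsified compound applied to the water surface on sowing day at stated g/ha; greenhouse 25–30 °C, effects assessed 3 weeks after treatment.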

catchweed [5] = test: Test Example 4: weedkilling efficacy by foliar treatment; O: catchweed; conditions: treatment dosage 315 g/ha
In short: as §1

directly sown rice [6] = test: Test Example 3: soil treatment, effect on crop; b: directly sown rice; conditions: treatment dosage 315 g/ha
In short: as §2

soybean [7] = test: Test Example 3: soil treatment, effect on crop; d: soybean; conditions: treatment dosage 315 g/ha
In short: as §2

corn [8] = test: Test Example 4: foliar treatment, effect on crop; c: corn; conditions: treatment dosage 315 g/ha
In short: as §1

green foxtail [9] = test: Test Example 3: weedkilling efficacy through soil treatment; E: green foxtail; conditions: treatment dosage 315 g/ha
In short: as §2

wild oat [10] = test: Test Example 3: weedkilling efficacy through soil treatment; G: wild oat; conditions: treatment dosage 315 g/ha
In short: as §2

barnyard grass [11] = test: Test Example 1: weedkilling efficacy, preemergent weed treatment in the submerged state; A: barnyard grass; conditions: treatment dosage 252 g/ha
In short: as §4

corn [12] = test: Test Example 3: soil treatment, effect on crop; c: corn; conditions: treatment dosage 315 g/ha
In short: as §2

beet [13] = test: Test Example 3: soil treatment, effect on crop; f: beet; conditions: treatment dosage 315 g/ha
In short: as §2

bulrush [14] = test: Test Example 2: weedkilling efficacy, growth period weed treatment in the submerged state; B: bulrush; conditions: treatment dosage 252 g/ha
In short: as §3

oval-leafed pondweed [15] = test: Test Example 1: weedkilling efficacy, preemergent weed treatment in the submerged state; C: oval-leafed pondweed; conditions: treatment dosage 252 g/ha
In short: as §4

fig-leafed goosefoot [16] = test: Test Example 4: weedkilling efficacy by foliar treatment; M: fig-leafed goosefoot; conditions: treatment dosage 315 g/ha
In short: as §1

soybean [17] = test: Test Example 4: foliar treatment, effect on crop; d: soybean; conditions: treatment dosage 315 g/ha
In short: as §1

black-grass [18] = test: Test Example 3: weedkilling efficacy through soil treatment; H: black-grass; conditions: treatment dosage 315 g/ha
In short: as §2

green foxtail [19] = test: Test Example 4: weedkilling efficacy by foliar treatment; E: green foxtail; conditions: treatment dosage 315 g/ha
In short: as §1

wheat [20] = test: Test Example 4: foliar treatment, effect on crop; e: wheat; conditions: treatment dosage 315 g/ha
In short: as §1

catchweed [21] = test: Test Example 3: weedkilling efficacy through soil treatment; O: catchweed; conditions: treatment dosage 315 g/ha
In short: as §2

black-grass [22] = test: Test Example 4: weedkilling efficacy by foliar treatment; H: black-grass; conditions: treatment dosage 315 g/ha
In short: as §1

chickweed [23] = test: Test Example 4: weedkilling efficacy by foliar treatment; N: chickweed; conditions: treatment dosage 315 g/ha
In short: as §1

chickweed [24] = test: Test Example 3: weedkilling efficacy through soil treatment; N: chickweed; conditions: treatment dosage 315 g/ha
In short: as §2

redroot pigweed [25] = test: Test Example 3: weedkilling efficacy through soil treatment; L: redroot pigweed; conditions: treatment dosage 315 g/ha
In short: as §2

Indian mallow [26] = test: Test Example 3: weedkilling efficacy through soil treatment; K: Indian mallow; conditions: treatment dosage 315 g/ha
In short: as §2

wheat [27] = test: Test Example 3: soil treatment, effect on crop; e: wheat; conditions: treatment dosage 315 g/ha
In short: as §2

birds-eye speedwell [28] = test: Test Example 4: weedkilling efficacy by foliar treatment; p: birds-eye speedwell; conditions: treatment dosage 315 g/ha
In short: as §1

wild oat [29] = test: Test Example 4: weedkilling efficacy by foliar treatment; G: wild oat; conditions: treatment dosage 315 g/ha
In short: as §1

birds-eye speedwell [30] = test: Test Example 3: weedkilling efficacy through soil treatment; p: birds-eye speedwell; conditions: treatment dosage 315 g/ha
In short: as §2

Italian ryegrass [31] = test: Test Example 3: weedkilling efficacy through soil treatment; I: Italian ryegrass; conditions: treatment dosage 315 g/ha
In short: as §2

fig-leafed goosefoot [32] = test: Test Example 3: weedkilling efficacy through soil treatment; M: fig-leafed goosefoot; conditions: treatment dosage 315 g/ha
In short: as §2

barnyard grass [33] = test: Test Example 2: weedkilling efficacy, growth period weed treatment in the submerged state; A: barnyard grass; conditions: treatment dosage 252 g/ha
In short: as §3

redroot pigweed [34] = test: Test Example 4: weedkilling efficacy by foliar treatment; L: redroot pigweed; conditions: treatment dosage 315 g/ha
In short: as §1

bulrush [35] = test: Test Example 1: weedkilling efficacy, preemergent weed treatment in the submerged state; B: bulrush; conditions: treatment dosage 252 g/ha
In short: as §4

beet [36] = test: Test Example 4: foliar treatment, effect on crop; f: beet; conditions: treatment dosage 315 g/ha
In short: as §1

Indian mallow [37] = test: Test Example 4: weedkilling efficacy by foliar treatment; K: Indian mallow; conditions: treatment dosage 315 g/ha
In short: as §1

Italian ryegrass [38] = test: Test Example 4: weedkilling efficacy by foliar treatment; I: Italian ryegrass; conditions: treatment dosage 315 g/ha
In short: as §1

Q: What does the source list for `CC1=C(c2ccccc2)C(=O)N(C(C)(C)C(=O)Nc2cc(F)ccn2)CO1` [B-2-25]?
A: b (directly sown rice) effect on crop grade (directly sown rice [1]): 5 (weed kill ratio 90% or more, (practically complete withering)); D (crabgrass) weedkilling efficacy grade (crabgrass [2]): 5 (weed kill ratio 90% or more, (practically complete withering)); D (crabgrass) weedkilling efficacy grade (crabgrass [3]): 5 (weed kill ratio 90% or more, (practically complete withering)); C (oval-leafed pondweed) weedkilling efficacy grade (oval-leafed pondweed [4]): 5 (weed kill ratio 90% or more, (practically complete withering)); a (transplanted rice) effect on crop grade (transplanted rice): 2 (weed kill ratio 20% or more, less than 40%); O (catchweed) weedkilling efficacy grade (catchweed [5]): 5 (weed kill ratio 90% or more, (practically complete withering)); b (directly sown rice) effect on crop grade (directly sown rice [6]): 5 (weed kill ratio 90% or more, (practically complete withering)); d (soybean) effect on crop grade (soybean [7]): 0 (weed kill ratio 5% or less (practically no effect)); c (corn) effect on crop grade (corn [8]): 3 (weed kill ratio 40% or more, less than 70%); E (green foxtail) weedkilling efficacy grade (green foxtail [9]): 5 (weed kill ratio 90% or more, (practically complete withering)); G (wild oat) weedkilling efficacy grade (wild oat [10]): 5 (weed kill ratio 90% or more, (practically complete withering)); A (barnyard grass) weedkilling efficacy grade (barnyard grass [11]): 5 (weed kill ratio 90% or more, (practically complete withering)); c (corn) effect on crop grade (corn [12]): 3 (weed kill ratio 40% or more, less than 70%); f (beet) effect on crop grade (beet [13]): 2 (weed kill ratio 20% or more, less than 40%); B (bulrush) weedkilling efficacy grade (bulrush [14]): 5 (weed kill ratio 90% or more, (practically complete withering)); C (oval-leafed pondweed) weedkilling efficacy grade (oval-leafed pondweed [15]): 5 (weed kill ratio 90% or more, (practically complete withering)); M (fig-leafed goosefoot) weedkilling efficacy grade (fig-leafed goosefoot [16]): 4 (weed kill ratio 70% or more, less than 90%); d (soybean) effect on crop grade (soybean [17]): 3 (weed kill ratio 40% or more, less than 70%); H (black-grass) weedkilling efficacy grade (black-grass [18]): 5 (weed kill ratio 90% or more, (practically complete withering)); E (green foxtail) weedkilling efficacy grade (green foxtail [19]): 5 (weed kill ratio 90% or more, (practically complete withering)); e (wheat) effect on crop grade (wheat [20]): 0 (weed kill ratio 5% or less (practically no effect)); O (catchweed) weedkilling efficacy grade (catchweed [21]): 5 (weed kill ratio 90% or more, (practically complete withering)); H (black-grass) weedkilling efficacy grade (black-grass [22]): 5 (weed kill ratio 90% or more, (practically complete withering)); N (chickweed) weedkilling efficacy grade (chickweed [23]): 4 (weed kill ratio 70% or more, less than 90%); N (chickweed) weedkilling efficacy grade (chickweed [24]): 4 (weed kill ratio 70% or more, less than 90%); L (redroot pigweed) weedkilling efficacy grade (redroot pigweed [25]): 3 (weed kill ratio 40% or more, less than 70%); K (Indian mallow) weedkilling efficacy grade (Indian mallow [26]): 4 (weed kill ratio 70% or more, less than 90%); e (wheat) effect on crop grade (wheat [27]): 1 (weed kill ratio 5% or more, less than 20%); P (birds-eye speedwell) weedkilling efficacy grade (birds-eye speedwell [28]): 5 (weed kill ratio 90% or more, (practically complete withering)); G (wild oat) weedkilling efficacy grade (wild oat [29]): 5 (weed kill ratio 90% or more, (practically complete withering)); P (birds-eye speedwell) weedkilling efficacy grade (birds-eye speedwell [30]): 5 (weed kill ratio 90% or more, (practically complete withering)); I (Italian ryegrass) weedkilling efficacy grade (Italian ryegrass [31]): 5 (weed kill ratio 90% or more, (practically complete withering)); M (fig-leafed goosefoot) weedkilling efficacy grade (fig-leafed goosefoot [32]): 4 (weed kill ratio 70% or more, less than 90%); A (barnyard grass) weedkilling efficacy grade (barnyard grass [33]): 5 (weed kill ratio 90% or more, (practically complete withering)); L (redroot pigweed) weedkilling efficacy grade (redroot pigweed [34]): 2 (weed kill ratio 20% or more, less than 40%); B (bulrush) weedkilling efficacy grade (bulrush [35]): 5 (weed kill ratio 90% or more, (practically complete withering)); f (beet) effect on crop grade (beet [36]): 3 (weed kill ratio 40% or more, less than 70%); K (Indian mallow) weedkilling efficacy grade (Indian mallow [37]): 4 (weed kill ratio 70% or more, less than 90%); I (Italian ryegrass) weedkilling efficacy grade (Italian ryegrass [38]): 5 (weed kill ratio 90% or more, (practically complete withering))

Source: patent US9738634B2, “Heterocyclic amide compound and herbicide” (SYNGENTA PARTICIPATIONS AG, priority 2013, dated 2017)
